This experiment relates to influenza A virus (IAV) A/Aichi/2/68 (H3N2). Put plainly: microbe, parasite or virus in culture. It is filed as cell-based, influenza A virus A/Aichi/2/68 (H3N2) on MDCK cells. Conditions: H3N2, MDCK, 48 h.

Molecules are shown by their SMILES. Like-named read-outs stand apart in the source and are kept apart here.

Drawing on patent US20170081323A1 (priority 2015, published 2017), this text covers IC50 for 29 compounds.

With `O=c1[nH]nc2ccc(-c3ccccc3-c3ccccc3)cn12`, the IC50 (read-out: CPE) was above 50 µM.

As for `O=c1[nH]nc2ccc(-c3cccc(-c4ccccc4)c3)cn12`, the IC50 (read-out: CPE) was above 50 µM.

For `O=c1[nH]nc2ccc(-c3ccccc3-c3ccncc3)cn12`, under “read-out: CPE”, the IC50 was above 50 µM.

Regarding `O=c1[nH]nc2ccc(-c3cccc(Cl)c3)cn12`, the IC50 (read-out: CPE) is above 50 µM.

As for `O=c1[nH]nc2ccc(-c3ccccc3Cl)cn12`, the IC50 (read-out: CPE) was above 50 µM.

Regarding `O=c1[nH]nc2ccc(-c3ccccc3Cl)c(OCC3CC3)n12`, the IC50 (read-out: CPE) is above 50 µM.

For `O=c1[nH]nc2c(-c3ccccc3)cccn12`, the IC50 (read-out: CPE) was above 50 µM.

For `O=c1[nH]nc2ccc(-c3ccc(-c4ccccc4)cc3)cn12`, the IC50 (read-out: CPE) is above 50 µM.

Consider `O=c1[nH]nc2ccc(-c3ccccc3)c(OCC3CC3)n12`, for which the IC50 (read-out: CPE) was above 50 µM.

As for `O=c1[nH]nc2ccc(-c3cccc(F)c3)cn12`, the IC50 (read-out: CPE) was above 50 µM.

Take `O=c1[nH]nc2ccc(-c3ccccc3Cl)c(Oc3ccccc3)n12`: the IC50 (read-out: CPE) was above 50 µM.

For the compound `O=c1[nH]nc2ccc(-c3ccccc3)cn12`, the IC50 (read-out: CPE) was above 50 µM.

Turning to `O=c1[nH]nc2cccc(Oc3ccccc3)n12`, where the note is “read-out: CPE”, the IC50 was above 50 µM.

`O=c1[nH]nc2n1C(OCC1CC1)CCC2` (centres unmarked): the IC50 (read-out: CPE) was above 50 µM.

As to `O=c1[nH]nc2ccc(-c3cccc(-c4c(F)cccc4F)c3)cn12`, the IC50 (read-out: CPE IC50) amounted to 34.9 µM.

With `O=c1[nH]nc2ccc(Br)cn12`, the IC50 (read-out: CPE) was above 50 µM.

As to `O=c1[nH]nc2ccc(-c3cccc4ccccc34)cn12`, the IC50 (read-out: CPE) is above 50 µM.

On to `COc1ccc(-c2ccc3n[nH]c(=O)n3c2)c(Cl)c1`, for which, for the setting “read-out: CPE”, the IC50 was above 50 µM.

Turning to `O=c1[nH]nc2cc(-c3ccccc3)ccn12`, the IC50 (read-out: CPE) was above 50 µM.

Consider `O=c1[nH]nc2cccc(-c3ccccc3)n12`, for which, where the note is “read-out: CPE”, the IC50 is above 50 µM.

`O=c1[nH]nc2ccc(Oc3ccccc3)cn12`: the IC50 (read-out: CPE) was above 50 µM.

In the case of `O=c1[nH]nc2ccc(-c3cccc(F)c3F)cn12`, the IC50 (read-out: CPE) is above 50 µM.

For the compound `O=c1[nH]nc2cccc(-c3ncccn3)n12`, for the setting “read-out: CPE”, the IC50 was above 50 µM.

For the compound `O=c1[nH]nc2ccc(Br)c(Oc3ccccc3)n12`, where the note is “read-out: CPE”, the IC50 is above 50 µM.

As to `O=c1[nH]nc2ccc(-c3ccccc3-c3cccc(F)c3)cn12`, the IC50 (read-out: CPE) was above 50 µM.

Regarding `O=c1[nH]nc2ccc(-c3ccc(Cl)cc3)cn12`, the IC50 (read-out: CPE) was above 50 µM.

Consider `O=c1[nH]nc2cccc(C#CC3CC3)n12`, for which the IC50 (read-out: CPE) is above 50 µM.

With `Cc1ccc(C)c(-c2ccc3n[nH]c(=O)n3c2)c1`, where the note is “read-out: CPE”, the IC50 is above 50 µM.

Take `O=C1NNC2CCCC(CCC3CC3)N12` (centres unmarked): under “read-out: CPE”, the IC50 is above 50 µM.
